Measured values reported in patent US20250298040A1, “MEASUREMENT OF REACTIVE OXYGEN SPECIES TO ASSESS RED BLOOD CELL QUALITY” (UNIVERSITY OF MARYLAND, BALTIMORE, priority 2022, published 2025).

How the values were obtained:
RBCs [1] = test: Oxygen equilibrium (P50) of RBCs exposed to CMH; format: cell-based, human; settings: CMH up to 10 mM (10-fold the intended assay concentration)
Description: (§1) Donor blood. Blood was obtained from healthy volunteers under informed consent. All human subject research was approved by the University of Maryland, Baltimore Institutional Review Board under Protocol #-HP-00092436.
(§2) CMH Incubation. Whole blood was centrifuged at 900 g/2500 rpm for 10 minutes to separate RBC from plasma/buffy coat. Plasma and buffy coat were removed, and RBCs were washed five times with 0.5 ml volumes of isotonic phosphate buffered saline containing 5 mM glucose. After each wash, supernatant and residual buffy coat was removed. After the 5th wash the RBC pellet was mixed with the preservative solution, CPDA-1 in an 85:15 ratio (150 μL CPDA-1 for a total volume of 1 mL). This step was performed to approximate the preparation of packed RBCs for refrigerator storage. CMH was diluted with double deionized H2O (ddH2O) to make stock solutions ranging from 400-4 mM. […] After 10 minutes of incubation, complete blood count, shear stress deformability, oxygen equilibrium (oxygen saturation and desaturation) was measured as 3 technical replicates for all samples. […]
Measurement of Oxygen equilibrium (p50). […] The P50 value was determined using an automated blood oxygen analyzer (Hemox, Model B, TCS Scientific) following the manufacturer's protocol. […]

RBCs [2] = test: Complete blood count RBC parameters following CMH exposure; format: cell-based, human; settings: CMH 0.1, 0.3, 1.0, 3.0 and 10 mM, 10 minutes, ambient temperature, vs vehicle ddH2O
Description: as §1
(§3) CMH Incubation. Whole blood was centrifuged at 900 g/2500 rpm for 10 minutes to separate RBC from plasma/buffy coat. Plasma and buffy coat were removed, and RBCs were washed five times with 0.5 ml volumes of isotonic phosphate buffered saline containing 5 mM glucose. After each wash, supernatant and residual buffy coat was removed. After the 5th wash the RBC pellet was mixed with the preservative solution, CPDA-1 in an 85:15 ratio (150 μL CPDA-1 for a total volume of 1 mL). This step was performed to approximate the preparation of packed RBCs for refrigerator storage. CMH was diluted with double deionized H2O (ddH2O) to make stock solutions ranging from 400-4 mM. 10 μL of stock CMH solution or ddH2O was added to 390 μL of RBC/CPDA-1 suspensions, mixed gently but thoroughly and incubated at ambient temperature for 10 minutes. The concentrations tested were as follows: 0.1, 0.3, 1.0, 3.0 and 10 mM. This step was performed to approximate the preparation time needed for assaying superoxide in donor RBCs at the point of collection or in a blood bank setting. After 10 minutes of incubation, complete blood count, shear stress deformability, oxygen equilibrium (oxygen saturation and desaturation) was measured as 3 technical replicates for all samples. Fixation of RBCs was performed for scanning electron microscopy.
Total Blood cell count. Total blood cell count was quantified using ABX Pentra 60 C+ Hematology analyzer (HORIBA Instruments Inc., Kyoto, Japan). Briefly, 60 μL of whole blood was used for the analyses.

[3] = CMH oxidation by O2^·− from xanthine oxidase/hypoxanthine, cell-free EPR; settings: 1 mM CMH
Description: (§4) Measurement of CMH oxidation by EPR spectroscopy. All samples for EPR measurement contained 1 mM CMH. Other reagents, when used, were at the following concentrations: xanthine oxidase (XO), 0.03 U/mL; superoxide dismutase (SOD), 5 μM; hypoxanthine (HX), 0.5 mM; hydrogen peroxide (H2O2), 1 mM. Cell-free measurements were made in phosphate-buffered saline (PBS) containing 1 mM diethylenetriaminepentaacetic acid (DTPA). For measurements on RBCs, each sample was made by mixing 2 μL of 50 mM CMH·HCl stock solution with 98 μL of RBC suspension (˜40% hematocrit) in Citrate Phosphate Dextrose Adenine (CPDA-1, Sigma-Aldrich, St. Louis, MO). Time zero (t=0) is the time at which CMH is mixed into the sample. The amplitude (h) of the center peak of the CM· nitroxide EPR spectrum was converted into concentration (C in μM) by using a calibration equation, which for this example was C=(h−0.03308)/0.06461, determined using a series of standard samples.
(§5) Hydroxylamine molecular probe oxidation by O2^·−. The enzyme xanthine oxidase (XO) oxidizes its substrate hypoxanthine and generates O2^·− in the process. […] The first and last EPR spectrum of a representative data set are plotted as the inset at the top left, showing growth of the EPR spectrum as reaction proceeds. Superoxide dismutase (SOD) destroys O2^·− in a rapid enzymatic process, thus preventing it from reacting with CMH. […]

RBC = settings: cited from earlier work
RBCs [4] = test: Shear stress ektacytometry of RBCs exposed to CMH; format: cell-based, human; settings: CMH 0.1, 0.3, 1.0, 3.0 and 10 mM; shear stress 5.33 Pa and 30 Pa; vs vehicle, P>0.05
Description: as §1, §2
Measurements of RBC deformability. RBC deformability was measured by ektacytometry, using the laser-assisted optical rotational cell analyzer (LORCA MaxSis, Mechatronics, Netherlands) at 37° C. […] RBC deformability was measured by applying 9 different shear stresses ([…]). […]

human RBCs = test: CMH oxidation in human RBCs stored under normoxic vs hypoxic conditions, EPR; format: cell-based; settings: entire duration of storage, p<9.31×10^−4
Description: as §4
Distinguishing between normoxic and hypoxic storage conditions. Hydroxylamine molecular probe, e.g., CMH, measurements can be used to distinguish human RBCs stored under normoxic and hypoxic conditions, as shown in FIG. 3B. Duplicate samples of human RBCs were stored 1) under normoxic conditions (equilibrated with air), and 2) under hypoxic conditions (equilibrated with low-oxygen atmosphere) and tested periodically with CMH. […]

[5] = CMH incubation with hydrogen peroxide, cell-free EPR
Description: as §4, §5

RBCs [6] = test: Scanning electron microscopy of RBCs exposed to CMH; format: cell-based, human; settings: CMH 0.1, 0.3, 1.0, 3.0 and 10 mM, 10 minutes, ambient temperature, vs vehicle
Description: as §1
as §3, with “This step was performed to approximate the preparation time needed for assaying superoxide in donor RBCs at the point of collection or in a blood bank setting.” left out, “Fixation of RBCs was performed for scanning electron microscopy.” left out

[7] = tested on: RBCs from healthy donors and donors with sickle-cell disease; test: CMH oxidation in RBCs from healthy donors vs donors with sickle-cell disease, EPR; format: cell-based, human; settings: SCD n=19, Healthy n=6, p=1.26×10^−6
Description: as §4
Distinguishing between RBCs from healthy subjects and patients with sickle-cell disease. Hydroxylamine molecular probe, e.g., CMH, measurements can be used to differentiate between RBCs from healthy donors and donors with sickle-cell disease, as shown in FIG. 4. RBCs from screened healthy donors (Healthy, n=6) and donors that have sickle-cell disease (SCD, n=19) were tested with CMH. […] Error bars represent s.e.m.

[8] = tested on: RBCs from FVB and B6 mice; test: CMH oxidation in refrigerator-stored murine RBCs (FVB vs B6), EPR; format: cell-based, mouse
Description: as §4
Murine blood collection and storage. Mouse blood collections were approved by the University of Maryland, Baltimore Institutional Animal Care and Use Committee (IACUC) (protocol #0520008). Processed RBCs from two different mouse strains (C57BL/6J or B6 for short, Jackson Laboratory, Barr Harbor, ME and FVB, Charles Rivers, Worcester, MA) were evaluated in this study. Whole blood (approximately 800-1000 μL per mouse) was collected by cardiac puncture using a 21 G×1 inch needle and 1 mL syringe containing Citrate Phosphate Dextrose solution (CPD) from n=15 B6 and n=15 FVB mice. Blood was pooled within the strains in 15 mL falcon tubes and centrifuged at 750×g for 5 minutes. The plasma and buffy coat were removed. Each aliquot was washed 3 times in 5 mL of phosphate-buffered saline containing 10 mM glucose (PBS-G) with gentle swirling for 3 minutes followed by centrifugation at 750×g for 5 minutes. After the final wash, PBS-G was removed and CPDA-1 (840 μL, 14% of the total volume) was added to RBCs (approximately 6 mL of packed RBCs). Hematocrits were approximately 70% across storage tubes. Finally, preparations were split into 12 equal volumes (500 μL) and stored in 1.7 mL Eppendorf tubes (n=3 per mouse strain per time point) in a refrigerator at 4-6° C. Measurements were made on day 1 (immediately after processing) and then on days 2, 4 and 8 after processing such that measurements were made from independent tubes and not a single pooled blood tube.
Data analysis and presentation. Least-squares curve fitting and statistical analysis were performed using OriginPro software (OriginLab Corp., Northampton, MA). […] Difference between the two strains on the same day was assessed by t-test; within-strain differences over multiple days of storage were assessed through ANOVA.

Question: Which “oxygen equilibrium curves / P50 (hemoglobin allostery)” value (RBCs [1]) does the source give for `COC(=O)C1CC(C)(C)N(O)C1(C)C` (stereo not drawn) [CMH, 1-hydroxy-3-methoxycarbonyl-2,2,5,5-tetramethylpyrrolidine] here?
Answer: Its value is “does not impart aberrant hemoglobin allostery”.

Question: What about the “% hematocrit” value (RBCs [2]) of the same compound?
Answer: Its value is “no CMH concentration dependent differences”.

Question: And the Mean corpuscular hemoglobin (RBCs [2])?
Answer: The Mean corpuscular hemoglobin was “no CMH concentration dependent differences”.

Question: And the Mean corpuscular volume (RBCs [2])?
Answer: The Mean corpuscular volume was “no CMH concentration dependent differences”.

Question: And the RBC count (RBCs [2])?
Answer: The RBC count was “no CMH concentration dependent differences”.

Question: And the “mean corpuscular hemoglobin concentration” value (RBCs [2])?
Answer: The value was “no CMH concentration dependent differences”.

Question: And the total hemoglobin (RBCs [2])?
Answer: The total hemoglobin was “no CMH concentration dependent differences”.

Question: What about the “reaction of CMH with O2^·− (CM· formation quantified by EPR)” value ([3]; XO 0.03 U/mL, hypoxanthine 0.5 mM, PBS with 1 mM DTPA) of the same compound?
Answer: The value was “converts it to CM·”.

Question: What about the “production of CM· in presence of SOD” value ([3]; XO + hypoxanthine + SOD 5 μM) of the same compound?
Answer: Its value is “negligible production of CM·”.

Question: And the membrane permeance (RBC)?
Answer: Its membrane permeance is “membrane-permeant”.

Question: And the RBC elongation index (RBCs [4])?
Answer: The RBC elongation index was “do not change the elongation indices”.

Question: What about the “rate of CMH oxidation, normoxic vs hypoxic stored RBCs” value (human RBCs) of the same compound?
Answer: Its value is “much higher rate”.

Question: And the “generation of CM· on incubation with H2O2” value ([5]; 1 mM CMH, 1 mM H2O2, PBS with 1 mM DTPA)?
Answer: The value was “negligible generation of CM·”.

Question: And the “selectivity of CMH for O2^·− over H2O2” value ([5]; 1 mM H2O2)?
Answer: Its value is “high selectivity”.

Question: What about the “RBC membrane/morphology changes by SEM” value (RBCs [6]) of the same compound?
Answer: The value was “no remarkable changes”.

Question: What about the “rate of CMH oxidation, SCD RBCs vs Healthy RBCs” value [7] of the same compound?
Answer: Its value is “much higher rates”.

Question: And the “rate of CM· generation in B6 RBCs” value ([8]; B6 mouse RBCs, day 2 of storage, 1 mM CMH, slightly above buffer control CPDA-1)?
Answer: Its value is “low rate”.

Question: What about the “rate of CM· generation in FVB RBCs” value ([8]; FVB mouse RBCs vs B6, day 2 of storage, 1 mM CMH) of the same compound?
Answer: Its value is “much higher rate”.

Question: And the “mean rate of CMH to CM· oxidation, FVB versus B6 murine RBCs” value ([8]; days 1, 2, 4 and 8 of storage)?
Answer: The value was 3 fold.

Question: With `COC(=O)C1CC(C)(C)N([O])C1(C)C` (stereo not drawn) [CM·] as the compound, how does the membrane permeance (RBC) read?
Answer: The membrane permeance was “membrane-permeant”.

Question: What about the “mean [CM·] higher in RBCs from FVB mice than B6” value ([8]; at the time of CMH addition, each day of measurement) of the same compound?
Answer: The value was ~9 µM.
